Data from BindingDB's records for doi:10.1021/jm00113a020 (Case Western Reserve University, 1991).
Starred links: 1 amine or outer side, 2 acyl side, 3 side chain; linkers in the order of their positions; H or OH if unused. Residues, ends and D or L forms follow the SMILES beside them. Ethylenediamine = C(CN[*:2])N[*:1]; GABA = NCCCC(=O)O

Experiment: The compound was tested for binding activity towards Opioid receptor delta 1 in guinea pig brain membranes.

NCCCC(=O)NCCNC(=O)[C@H](Cc1ccccc1)NC(=O)CNC(=O)CNC(=O)[C@@H](N)Cc1ccc(O)cc1 (H-YGGF-{Ethylenediamine-GABA}) showed a Ki of 10.1 µM.

In the case of NCCCC(=O)NCCCN(CCCNC(=O)[C@H](Cc1ccccc1)NC(=O)CNC(=O)CNC(=O)[C@@H](N)Cc1ccc(O)cc1)C(=O)CCCN (HELM PEPTIDE1{Y.G.G.F.[NCCCC(=O)NCCCN(CCCN[*:1])C(=O)CCCN]}$$$$V2.0), the Ki is reported as 8.43 µM.

For NCCCC(=O)NCCN(CCNC(=O)[C@H](Cc1ccccc1)NC(=O)CNC(=O)CNC(=O)[C@@H](N)Cc1ccc(O)cc1)C(=O)CCCN (HELM PEPTIDE1{Y.G.G.F.[NCCCC(=O)NCCN(CCN[*:1])C(=O)CCCN]}$$$$V2.0), the Ki was 22.7 µM.

With NCCCC(=O)NCCN(CCN(CCNC(=O)[C@H](Cc1ccccc1)NC(=O)CNC(=O)CNC(=O)[C@@H](N)Cc1ccc(O)cc1)C(=O)CCCN)C(=O)CCCN [4-Amino-N-[2-(4-amino-butyrylamino)-ethyl]-N-[2-((4-amino-butyryl)-{2-[2-(2-{2-[2-amino-3-(4-hydroxy-phenyl)-propionylamino]-acetylamino}-acetylamino)-3-phenyl-propionylamino]-ethyl}-amino)-ethyl]-butyramide] (HELM PEPTIDE1{Y.G.G.F.[NCCCC(=O)NCCN(CCN(CCN[*:1])C(=O)CCCN)C(=O)CCCN]}$$$$V2.0) the Ki was over 10 µM.

In the case of CC[C@H](C)[C@H](NC(=O)[C@H](CCCN=C(N)N)NC(=O)[C@H](CCCN=C(N)N)NC(=O)[C@H](CC(C)C)NC(=O)[C@H](Cc1ccccc1)NC(=O)CNC(=O)CNC(=O)[C@@H](N)Cc1ccc(O)cc1)C(=O)N[C@@H](CCCN=C(N)N)C(=O)N1CCC[C@H]1C(=O)N[C@@H](CCCCN)C(=O)N[C@@H](CC(C)C)C(=O)N[C@@H](CCCCN)C(=O)O [Dynorphin A (1-13)], the Ki is reported as 0.016 µM.
